Type in all cases: ADME, organism-based
Data set [1] deals with Plasma. The data set can be described thus: Volume of distribution in extracorporeal membrane oxygenation-treated human neonatal plasma at 20 mg/kg, po by UPLC-MS/MS analysis. The arrangement: dose 20 mg/kg, route oral. As to conditions: in vivo.
Data set [2] is described as follows: Volume of distribution in extracorporeal membrane oxygenation-treated human neonatal plasma at 25 mg/kg SID by UPLC-MS/MS analysis. The arrangement: dose 25 mg/kg.
Data set [3] is described as follows: Elimination rate constant in extracorporeal membrane oxygenation-treated human neonatal plasma at 25 mg/kg QID by UPLC-MS/MS analysis. The arrangement: dose 25 mg/kg.
The nature of data set [4]: Volume of distribution in extracorporeal membrane oxygenation-treated human neonatal plasma at 50 mg/kg BID by UPLC-MS/MS analysis. More on the design: dose 50 mg/kg.
A short description of data set [5]: Elimination rate constant in extracorporeal membrane oxygenation-treated human neonatal plasma treatment at 50 mg/kg BID by UPLC-MS/MS analysis. More on the design: dose 50 mg/kg.
Data set [6] concerns Plasma. The data set can be described thus: Intercompartmental clearance rate from peripheral to central side of extracorporeal membrane oxygenation-treated human neonatal plasma at 20 mg/kg, po by UPLC-MS/MS analysis. More on the design: dose 20 mg/kg, route oral. The settings on record: in vivo.
Data set [7] deals with Plasma. As to the kind of experiment: Intercompartmental clearance rate from central to peripheral side of extracorporeal membrane oxygenation-treated human neonatal plasma at 20 mg/kg, po by UPLC-MS/MS analysis. The arrangement: dose 20 mg/kg, route oral. The settings on record: in vivo.

Structures are written as SMILES.

Turning to `CC1(C)S[C@@H]2[C@H](NC(=O)[C@H](N)c3ccc(O)cc3)C(=O)N2[C@H]1C(=O)O` [AMOXICILLIN], the values for the Vd (in the data set with Plasma [1]; in data set [2]) were 1.03 L/kg and 0.713 L/kg, respectively. The same compound had a k el in data set [3] of 9.17e-05 s⁻¹.

In turn, `CO/N=C(\C(=O)N[C@@H]1C(=O)N2C(C(=O)O)=C(COC(C)=O)CS[C@H]12)c1csc(N)n1` [CEFOTAXIME] registered a Vd in data set [4] of 0.912 L/kg. In data set [5], this compound had a k el of 5.47e-05 s⁻¹.

In turn, `CN[C@H](CC(C)C)C(=O)N[C@H]1C(=O)N[C@@H](CC(N)=O)C(=O)N[C@H]2C(=O)N[C@H]3C(=O)N[C@H](C(=O)N[C@H](C(=O)O)c4cc(O)cc(O)c4-c4cc3ccc4O)[C@H](O)c3ccc(c(Cl)c3)Oc3cc2cc(c3O[C@@H]2O[C@H](CO)[C@@H](O)[C@H](O)[C@H]2O[C@H]2C[C@](C)(N)[C@H](O)[C@H](C)O2)Oc2ccc(cc2Cl)[C@H]1O` [VANCOMYCIN] registered a k21 in the data set on Plasma [6] of 2.634 h⁻¹. Also, the k12 in the data set on Plasma [7] is 1.5 h⁻¹.

Source of the values: ChEMBL document CHEMBL1629576, “Microanalysis of beta-lactam antibiotics and vancomycin in plasma for pharmacokinetic studies in neonates” (Antimicrob Agents Chemother, 2009).
